In patent US10251395B2, “Substituted furano-/thienocycloalkylamino-2-pyrimidine derivatives and use thereof for controlling undesired plant growth” (Bayer CropScience Aktiengesellschaft, priority 2015, dated 2019):

What was measured:
logP (HCOOH) = format: physicochemical; details: HCOOH
Description: Table 2 (physicochemical characterization of selected synthesis examples)

Viola tricolor [1] = assay: Post-emergence herbicidal effect; format: in vivo; details: assessed visually after about 3 weeks vs untreated controls
Outline: (§1)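 Visual % damage vs untreated plants, ~3 wk after spraying (100% = dead, 0% = as control). Post-emergence foliar spray at one-leaf stage; WP/EC in water, 600–800 L/ha + 0.2% wetting agent; sandy loam, greenhouse.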

Abutilon theophrasti [2] = assay: Post-emergence herbicidal effect; format: in vivo; details: assessed visually after about 3 weeks vs untreated controls
Outline: as §1

Setaria viridis [3] = assay: Post-emergence herbicidal effect; format: in vivo; details: assessed visually after about 3 weeks vs untreated controls
Outline: as §1

Lolium multiflorum [4] = assay: Post-emergence herbicidal effect; format: in vivo; details: assessed visually after about 3 weeks vs untreated controls
Outline: as §1

Amaranthus retroflexus [5] = assay: Post-emergence herbicidal effect; format: in vivo; details: assessed visually after about 3 weeks vs untreated controls
Outline: as §1

Echinochloa crus-galli [6] = assay: Post-emergence herbicidal effect; format: in vivo; details: assessed visually after about 3 weeks vs untreated controls
Outline: as §1

Avena fatua [7] = assay: Post-emergence herbicidal effect; format: in vivo; details: 320 g/ha, assessed visually after about 3 weeks vs untreated controls
Outline: as §1

Veronica persica [8] = assay: Post-emergence herbicidal effect; format: in vivo; details: assessed visually after about 3 weeks vs untreated controls
Outline: as §1

Polygonum convolvulus [9] = assay: Post-emergence herbicidal effect; format: in vivo; details: assessed visually after about 3 weeks vs untreated controls
Outline: as §1

Alopecurus myosuroides [10] = assay: Post-emergence herbicidal effect; format: in vivo; details: assessed visually after about 3 weeks vs untreated controls
Outline: as §1

Ipomoea purpurea [11] = assay: Post-emergence herbicidal effect; format: in vivo; details: assessed visually after about 3 weeks vs untreated controls
Outline: as §1

Stellaria media [12] = assay: Post-emergence herbicidal effect; format: in vivo; details: assessed visually after about 3 weeks vs untreated controls
Outline: as §1

Matricaria inodora [13] = assay: Pre-emergence herbicidal effect; format: in vivo; details: scored visually after 3 weeks
Outline: (§2)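 Seeds in sandy loam were covered with soil and treated pre-emergence with WP or EC formulations applied as aqueous spray with 0.2% wetting agent. Percent damage was scored visually after 3 weeks relative to untreated controls.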

Viola tricolor [14] = assay: Pre-emergence herbicidal effect; format: in vivo; details: scored visually after 3 weeks
Outline: as §2

Abutilon theophrasti [15] = assay: Pre-emergence herbicidal effect; format: in vivo; details: scored visually after 3 weeks
Outline: as §2

Setaria viridis [16] = assay: Pre-emergence herbicidal effect; format: in vivo; details: scored visually after 3 weeks
Outline: as §2

Lolium multiflorum [17] = assay: Pre-emergence herbicidal effect; format: in vivo; details: scored visually after 3 weeks
Outline: as §2

Amaranthus retroflexus [18] = assay: Pre-emergence herbicidal effect; format: in vivo; details: scored visually after 3 weeks
Outline: as §2

Echinochloa crus-galli [19] = assay: Pre-emergence herbicidal effect; format: in vivo; details: scored visually after 3 weeks
Outline: as §2

Veronica persica [20] = assay: Pre-emergence herbicidal effect; format: in vivo; details: scored visually after 3 weeks
Outline: as §2

Polygonum convolvulus [21] = assay: Pre-emergence herbicidal effect; format: in vivo; details: scored visually after 3 weeks
Outline: as §2

Alopecurus myosuroides [22] = assay: Pre-emergence herbicidal effect; format: in vivo; details: scored visually after 3 weeks
Outline: as §2

Ipomoea purpurea [23] = assay: Pre-emergence herbicidal effect; format: in vivo; details: scored visually after 3 weeks
Outline: as §2

Stellaria media [24] = assay: Pre-emergence herbicidal effect; format: in vivo; details: scored visually after 3 weeks
Outline: as §2

Matricaria inodora [25] = assay: Post-emergence herbicidal effect; format: in vivo; details: assessed visually after about 3 weeks vs untreated controls
Outline: as §1

Avena fatua [26] = assay: Pre-emergence herbicidal effect; format: in vivo; details: Dosage 320 g/ha, scored visually after 3 weeks
Outline: as §2

SMILES: Nc1nc(N[C@@H]2CCCc3sccc32)ncc1C(F)(F)F [compound 46]
- logP (HCOOH) (logP (HCOOH)): oily; logP (HCOOH): 1.91; 1H NMR (CDCl3, 400 MHZ, δ in ppm): 1.80-1.95 (m,
- post-emergence efficacy VIOTR (Viola tricolor [1]; 80 g/ha): 80%
- post-emergence efficacy VIOTR (Viola tricolor [1]; 320 g/ha): 100%
- post-emergence efficacy ABUTH (Abutilon theophrasti [2]; 320 g/ha): 40%
- post-emergence efficacy SETVI (Setaria viridis [3]; 80 g/ha): 90%
- post-emergence efficacy SETVI (Setaria viridis [3]; 320 g/ha): 90%
- post-emergence efficacy LOLMU (Lolium multiflorum [4]; 80 g/ha): 80%
- post-emergence efficacy LOLMU (Lolium multiflorum [4]; 320 g/ha): 100%
- post-emergence efficacy AMARE (Amaranthus retroflexus [5]; 80 g/ha): 100%
- post-emergence efficacy AMARE (Amaranthus retroflexus [5]; 320 g/ha): 100%
- post-emergence efficacy ECHCG (Echinochloa crus-galli [6]; 80 g/ha): 100%
- post-emergence efficacy ECHCG (Echinochloa crus-galli [6]; 320 g/ha): 100%
- post-emergence efficacy AVEFA (Avena fatua [7]): 80%
- post-emergence efficacy VERPE (Veronica persica [8]; 80 g/ha): 80%
- post-emergence efficacy VERPE (Veronica persica [8]; 320 g/ha): 100%
- post-emergence efficacy POLCO (Polygonum convolvulus [9]; 80 g/ha): 90%
- post-emergence efficacy POLCO (Polygonum convolvulus [9]; 320 g/ha): 90%
- post-emergence efficacy ALOMY (Alopecurus myosuroides [10]; 80 g/ha): 90%
- post-emergence efficacy ALOMY (Alopecurus myosuroides [10]; 320 g/ha): 100%
- post-emergence efficacy PHBPU (Ipomoea purpurea [11]; 320 g/ha): 80%
- post-emergence efficacy STEME (Stellaria media [12]; 80 g/ha): 100%
- post-emergence efficacy STEME (Stellaria media [12]; 320 g/ha): 100%
- MATIN pre-emergence efficacy (herbicidal activity) (Matricaria inodora [13]; Dosage 80 g/ha): 100%
- MATIN pre-emergence efficacy (herbicidal activity) (Matricaria inodora [13]; Dosage 320 g/ha): 100%
- VIOTR pre-emergence efficacy (herbicidal activity) (Viola tricolor [14]; Dosage 80 g/ha): 100%
- VIOTR pre-emergence efficacy (herbicidal activity) (Viola tricolor [14]; Dosage 320 g/ha): 100%
- ABUTH pre-emergence efficacy (herbicidal activity) (Abutilon theophrasti [15]; Dosage 320 g/ha): 80%
- SETVI pre-emergence efficacy (herbicidal activity) (Setaria viridis [16]; Dosage 80 g/ha): 100%
- SETVI pre-emergence efficacy (herbicidal activity) (Setaria viridis [16]; Dosage 320 g/ha): 100%
- LOLMU pre-emergence efficacy (herbicidal activity) (Lolium multiflorum [17]; Dosage 80 g/ha): 80%
- LOLMU pre-emergence efficacy (herbicidal activity) (Lolium multiflorum [17]; Dosage 320 g/ha): 100%
- AMARE pre-emergence efficacy (herbicidal activity) (Amaranthus retroflexus [18]; Dosage 80 g/ha): 100%
- AMARE pre-emergence efficacy (herbicidal activity) (Amaranthus retroflexus [18]; Dosage 320 g/ha): 100%
- ECHCG pre-emergence efficacy (herbicidal activity) (Echinochloa crus-galli [19]; Dosage 80 g/ha): 100%
- ECHCG pre-emergence efficacy (herbicidal activity) (Echinochloa crus-galli [19]; Dosage 320 g/ha): 100%
- VERPE pre-emergence efficacy (herbicidal activity) (Veronica persica [20]; Dosage 80 g/ha): 100%
- VERPE pre-emergence efficacy (herbicidal activity) (Veronica persica [20]; Dosage 320 g/ha): 100%
- POLCO pre-emergence efficacy (herbicidal activity) (Polygonum convolvulus [21]; Dosage 80 g/ha): 90%
- POLCO pre-emergence efficacy (herbicidal activity) (Polygonum convolvulus [21]; Dosage 320 g/ha): 100%
- ALOMY pre-emergence efficacy (herbicidal activity) (Alopecurus myosuroides [22]; Dosage 80 g/ha): 100%
- ALOMY pre-emergence efficacy (herbicidal activity) (Alopecurus myosuroides [22]; Dosage 320 g/ha): 100%
- PHBPU pre-emergence efficacy (herbicidal activity) (Ipomoea purpurea [23]; Dosage 320 g/ha): 100%
- STEME pre-emergence efficacy (herbicidal activity) (Stellaria media [24]; Dosage 80 g/ha): 100%
- STEME pre-emergence efficacy (herbicidal activity) (Stellaria media [24]; Dosage 320 g/ha): 100%

SMILES: CC(=O)c1cnc(NC2CCCc3sc(C)cc32)nc1N (centres unmarked) [compound 283]
- post-emergence efficacy MATIN (Matricaria inodora [25]; 80 g/ha): 90%
- post-emergence efficacy MATIN (Matricaria inodora [25]; 320 g/ha): 90%
- post-emergence efficacy VIOTR (Viola tricolor [1]; 80 g/ha): 90%
- post-emergence efficacy VIOTR (Viola tricolor [1]; 320 g/ha): 100%
- post-emergence efficacy ABUTH (Abutilon theophrasti [2]; 80 g/ha): 90%
- post-emergence efficacy ABUTH (Abutilon theophrasti [2]; 320 g/ha): 90%
- post-emergence efficacy SETVI (Setaria viridis [3]; 80 g/ha): 50%
- post-emergence efficacy SETVI (Setaria viridis [3]; 320 g/ha): 90%
- post-emergence efficacy LOLMU (Lolium multiflorum [4]; 320 g/ha): 100%
- post-emergence efficacy AMARE (Amaranthus retroflexus [5]; 80 g/ha): 90%
- post-emergence efficacy AMARE (Amaranthus retroflexus [5]; 320 g/ha): 100%
- post-emergence efficacy ECHCG (Echinochloa crus-galli [6]; 80 g/ha): 80%
- post-emergence efficacy ECHCG (Echinochloa crus-galli [6]; 320 g/ha): 100%
- post-emergence efficacy AVEFA (Avena fatua [7]): 80%
- post-emergence efficacy VERPE (Veronica persica [8]; 320 g/ha): 100%
- post-emergence efficacy POLCO (Polygonum convolvulus [9]; 320 g/ha): 70%
- post-emergence efficacy ALOMY (Alopecurus myosuroides [10]; 320 g/ha): 90%
- post-emergence efficacy PHBPU (Ipomoea purpurea [11]; 80 g/ha): 80%
- post-emergence efficacy PHBPU (Ipomoea purpurea [11]; 320 g/ha): 90%
- post-emergence efficacy STEME (Stellaria media [12]; 80 g/ha): 100%
- post-emergence efficacy STEME (Stellaria media [12]; 320 g/ha): 100%
- MATIN pre-emergence efficacy (herbicidal activity) (Matricaria inodora [13]; Dosage 80 g/ha): 100%
- MATIN pre-emergence efficacy (herbicidal activity) (Matricaria inodora [13]; Dosage 320 g/ha): 100%
- VIOTR pre-emergence efficacy (herbicidal activity) (Viola tricolor [14]; Dosage 80 g/ha): 100%
- VIOTR pre-emergence efficacy (herbicidal activity) (Viola tricolor [14]; Dosage 320 g/ha): 100%
- ABUTH pre-emergence efficacy (herbicidal activity) (Abutilon theophrasti [15]; Dosage 80 g/ha): 90%
- ABUTH pre-emergence efficacy (herbicidal activity) (Abutilon theophrasti [15]; Dosage 320 g/ha): 100%
- SETVI pre-emergence efficacy (herbicidal activity) (Setaria viridis [16]; Dosage 80 g/ha): 100%
- SETVI pre-emergence efficacy (herbicidal activity) (Setaria viridis [16]; Dosage 320 g/ha): 100%
- LOLMU pre-emergence efficacy (herbicidal activity) (Lolium multiflorum [17]; Dosage 80 g/ha): 100%
- LOLMU pre-emergence efficacy (herbicidal activity) (Lolium multiflorum [17]; Dosage 320 g/ha): 100%
- AMARE pre-emergence efficacy (herbicidal activity) (Amaranthus retroflexus [18]; Dosage 80 g/ha): 100%
- AMARE pre-emergence efficacy (herbicidal activity) (Amaranthus retroflexus [18]; Dosage 320 g/ha): 100%
- ECHCG pre-emergence efficacy (herbicidal activity) (Echinochloa crus-galli [19]; Dosage 80 g/ha): 100%
- ECHCG pre-emergence efficacy (herbicidal activity) (Echinochloa crus-galli [19]; Dosage 320 g/ha): 100%
- AVEFA pre-emergence efficacy (herbicidal activity) (Avena fatua [26]): 80%
- VERPE pre-emergence efficacy (herbicidal activity) (Veronica persica [20]; Dosage 320 g/ha): 100%
- POLCO pre-emergence efficacy (herbicidal activity) (Polygonum convolvulus [21]; Dosage 80 g/ha): 100%
- POLCO pre-emergence efficacy (herbicidal activity) (Polygonum convolvulus [21]; Dosage 320 g/ha): 100%
- ALOMY pre-emergence efficacy (herbicidal activity) (Alopecurus myosuroides [22]; Dosage 80 g/ha): 80%
- ALOMY pre-emergence efficacy (herbicidal activity) (Alopecurus myosuroides [22]; Dosage 320 g/ha): 100%
- PHBPU pre-emergence efficacy (herbicidal activity) (Ipomoea purpurea [23]; Dosage 80 g/ha): 60%
- PHBPU pre-emergence efficacy (herbicidal activity) (Ipomoea purpurea [23]; Dosage 320 g/ha): 100%
- STEME pre-emergence efficacy (herbicidal activity) (Stellaria media [24]; Dosage 80 g/ha): 100%
- STEME pre-emergence efficacy (herbicidal activity) (Stellaria media [24]; Dosage 320 g/ha): 100%
